Reference: PubChem BioAssay (NCI)
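Method: 48-hour compound exposure of cells in 96-well plates, five concentrations, linear interpolation of endpoints. GI50: concentration for 50% inhibition of growth. TGI: total growth inhibition.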

Assays:
Assay in all cases: growth of human tumour cells (NCI), 48 h
U251 CNS = system: U251 CNS
NCI-H522 lung = system: NCI-H522 lung
SF-268 CNS = system: SF-268 CNS
HCT-116 colon = system: HCT-116 colon
EKVX NSCLC = system: EKVX NSCLC
KM12 colon = system: KM12 colon
COLO 205 colon = system: COLO 205 colon
LOX IMVI melanoma = system: LOX IMVI melanoma
PC-3 prostate = system: PC-3 prostate
BT-549 breast = system: BT-549 breast

SMILES	TGI (U251 CNS) [µM]	TGI (NCI-H522 lung) [µM]	TGI (SF-268 CNS) [µM]	TGI (HCT-116 colon) [µM]	TGI (EKVX NSCLC) [µM]	TGI (KM12 colon) [µM]	TGI (COLO 205 colon) [µM]	TGI (LOX IMVI melanoma) [µM]	GI50 (PC-3 prostate) [µM]	TGI (PC-3 prostate) [µM]	GI50 (U251 CNS) [µM]	GI50 (NCI-H522 lung) [µM]	GI50 (COLO 205 colon) [µM]	GI50 (LOX IMVI melanoma) [µM]	GI50 (HCT-116 colon) [µM]	GI50 (EKVX NSCLC) [µM]	GI50 (KM12 colon) [µM]	GI50 (SF-268 CNS) [µM]	GI50 (BT-549 breast) [µM]	TGI (BT-549 breast) [µM]
NCCOCCOCC(=O)O	> 100	> 100	> 100	> 100	> 100	> 100	–	–	–	–	–	–	–	–	–	–	–	–	–	–
COc1cccc(C=NC23CC4CC(CC(C4)C2)C3)c1	> 100	> 100	> 100	> 100	> 100	> 100	> 100	> 100	–	–	–	–	–	–	–	–	–	–	–	–
O=C(O)C(Cc1ccccc1)N1C(=O)/C(=C/C(Cl)=C/c2ccc([N+](=O)[O-])cc2)SC1=S (configuration not stated)	3.52	4.47	–	5.47	7.29	4.35	6.21	3.26	2.53	7.98	1.72	1.72	2.45	1.64	2.01	2.59	2.06	–	–	–
COC(=O)C1=C(O)c2cc(OC)c(OC)c(OC)c2C(c2ccc3c(c2)OCO3)[C@@H]1C(=O)OC (some centres not stated)	> 100	–	> 100	> 100	> 100	> 100	6.37	> 100	–	–	–	–	–	–	–	–	–	–	–	–
C=C(CN1CCN(c2ccccn2)CC1)c1ccc(C(=O)Nc2ccccc2N)cc1	> 50	9.36	9.22	32.1	> 50	3.12	5.74	–	3.78	> 50	1.48	1.56	1.71	–	2.5	5.33	0.936	1.66	3.95	37.4
COc1c2c(c(O)c3c4c(c(C)cc13)C1OC3(C(OC)OC5CC(C)(O)C(OC6CC(C)(O)C(O)C(C)O6)C(C)O5)OC1C(OC)(O4)C31CO1)C(=O)C(O)CC2OC1CC(C)(O)C(OC(C)=O)C(C)O1 (configuration not stated)	< 0.0108	< 0.01	0.0167	5.74	0.0336	< 0.01	–	–	–	–	–	–	–	–	–	–	–	–	–	–
O=C1N=C2N=C(c3ccc(Cl)cc3)N(c3ccc(Cl)cc3)N2Sc2ccccc21	87.2	> 100	> 100	> 100	> 100	> 100	> 100	> 100	–	–	–	–	–	–	–	–	–	–	–	–
COC(=O)N[C@@H](C)CNc1nccc(-c2cn(C(C)C)nc2-c2cc(Cl)cc(NS(C)(=O)=O)c2F)n1	> 100	> 100	> 100	> 100	–	> 100	> 100	> 100	> 100	> 100	59.5	> 55.2	< 0.01	0.268	0.662	–	70.1	> 100	> 100	> 100
O=C1c2ccccc2-c2c1c1ccccc1c(=O)n2CCNCCNCCNCCNCCn1c2c(c3ccccc3c1=O)C(=O)c1ccccc1-2	> 100	0.474	0.808	–	2.7	5.32	3.94	0.0703	–	–	> 100	0.0202	0.597	0.0182	0.133	0.677	0.655	0.049	0.334	1.62
O=C1C(=O)N(c2cc(Cl)ccc2Cl)C(=O)C(=O)C1c1nc2ccccc2s1	> 100	> 100	> 100	> 100	> 100	> 100	> 100	> 100	–	–	–	–	–	–	–	–	–	–	–	–
CCCCn1c(-c2ccccc2)cs/c1=N\NC(=O)Cn1c(C)nc2ccccc21	> 100	> 100	–	> 100	> 100	> 100	38.2	> 100	–	–	–	–	–	–	–	–	–	–	–	–
O=C(NCCCN1CCN(CCCNC(=O)Nc2cc(Cl)ccc2Cl)CC1)Nc1cc(Cl)ccc1Cl	> 100	> 100	> 100	> 100	–	> 100	> 100	> 100	–	–	–	–	–	–	–	–	–	–	–	–
C[C@]12CCC3c4ccc(O)cc4CCC3C1CC[C@@H]2NC(=O)/C=C/c1ccc(O)c(O)c1 (some centres not stated)	21.1	27.4	45.3	23	31.2	> 100	32.9	17.8	3.94	40.5	6.63	6.25	13.1	3.86	10.6	10.2	34.2	11.2	–	–
CCNC(=O)COc1ccc(Cl)c(C)c1	> 100	> 100	> 100	> 100	–	> 100	> 100	> 100	–	–	–	–	–	–	–	–	–	–	–	–
CC(NC1CCCC[C@@H]1O)c1ccccc1 (some centres not stated)	> 100	–	–	> 100	> 100	> 100	> 100	> 100	–	–	–	–	–	–	–	–	–	–	–	–
CSCc1ncc(-c2ccc(C(F)(F)F)cc2)c(NC2CCCCCC2)n1	> 10	–	> 10	> 10	–	> 10	> 10	> 10	> 10	> 10	> 10	–	> 10	> 10	> 10	–	> 10	> 10	> 10	> 10
c1ccc(N2CCN(CCN3CCc4c([nH]c5ccccc45)C3c3cccnc3)CC2)cc1 (configuration not stated)	> 100	> 100	> 100	> 100	> 100	> 100	–	–	–	–	–	–	–	–	–	–	–	–	–	–
Nc1ccccc1SC(/C=C/NNC1=NC(c2ccccc2)C(c2ccccc2)=NN1)c1ccccc1 (configuration not stated)	28.9	14.5	17.1	–	29	29.1	29	27.1	–	–	–	–	–	–	–	–	–	–	–	–
C[C@]12CC[C@H](OC(=O)Nc3ccccc3)CC1=CC[C@@H]1C2CC[C@]2(C)/C(=N/OC(=O)Nc3ccccc3)CCC12 (some centres not stated)	> 100	–	> 100	> 100	> 100	> 100	> 100	> 100	–	–	–	–	–	–	–	–	–	–	–	–
COc1cc(C2CC(c3ccc(Cl)cc3)=NN2C(C)=O)ccc1Oc1ccnc2cc(Cl)ccc12 (configuration not stated)	> 100	–	–	–	–	> 100	–	–	–	–	3.09	–	–	–	–	–	> 100	–	1.4	> 100
COC(OC)c1cccnc1C	> 100	> 100	> 100	> 100	> 100	> 100	> 100	> 100	–	–	–	–	–	–	–	–	–	–	–	–
